Reference: PubChem BioAssay (NCI)
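96-well plates; 48 h exposure; 5 concentrations. Endpoints by linear interpolation between flanking doses. Not reached: highest tested concentration assigned. TGI denotes the concentration required for complete inhibition of growth.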

Assays:
Test in all cases: growth of human tumour cells (NCI), 48 h
SNB-19 CNS = test system: SNB-19 CNS
T-47D breast = test system: T-47D breast
NCI-H23 lung = test system: NCI-H23 lung
SF-268 CNS = test system: SF-268 CNS
SK-MEL-2 melanoma = test system: SK-MEL-2 melanoma
HOP-92 NSCLC = test system: HOP-92 NSCLC
MDA-N = test system: MDA-N
UACC-257 melanoma = test system: UACC-257 melanoma
SF-295 CNS = test system: SF-295 CNS
K-562 leukemia = test system: K-562 leukemia
CCRF-CEM leukemia = test system: CCRF-CEM leukemia
HCT-15 colon = test system: HCT-15 colon
A549 NSCLC = test system: A549 NSCLC
HL-60(TB) leukemia = test system: HL-60(TB) leukemia
CAKI-1 renal = test system: CAKI-1 renal
UO-31 renal = test system: UO-31 renal
LOX IMVI melanoma = test system: LOX IMVI melanoma
OVCAR-8 ovarian = test system: OVCAR-8 ovarian
SW-620 colon = test system: SW-620 colon
HT29 colon = test system: HT29 colon
IGROV1 ovarian = test system: IGROV1 ovarian
BT-549 breast = test system: BT-549 breast
MDA-MB-435 = test system: MDA-MB-435
OVCAR-4 ovarian = test system: OVCAR-4 ovarian
MDA-MB-231 breast = test system: MDA-MB-231 breast
RXF 393 renal = test system: RXF 393 renal
NCI-H460 lung = test system: NCI-H460 lung
SF-539 CNS = test system: SF-539 CNS
HOP-62 NSCLC = test system: HOP-62 NSCLC
MOLT-4 leukemia = test system: MOLT-4 leukemia
HS 578T breast = test system: HS 578T breast
SR leukemia = test system: SR leukemia
TK-10 renal = test system: TK-10 renal
SK-MEL-28 melanoma = test system: SK-MEL-28 melanoma
DU-145 prostate = test system: DU-145 prostate
MALME-3M melanoma = test system: MALME-3M melanoma
NCI-H226 lung = test system: NCI-H226 lung
HCT-116 colon = test system: HCT-116 colon
NCI-H522 lung = test system: NCI-H522 lung
ACHN renal = test system: ACHN renal
COLO 205 colon = test system: COLO 205 colon
M14 melanoma = test system: M14 melanoma
PC-3 prostate = test system: PC-3 prostate
RPMI-8226 leukemia = test system: RPMI-8226 leukemia
SN12C renal = test system: SN12C renal
SK-MEL-5 melanoma = test system: SK-MEL-5 melanoma
KM12 colon = test system: KM12 colon
OVCAR-5 ovarian = test system: OVCAR-5 ovarian
NCI/ADR-RES ovarian = test system: NCI/ADR-RES ovarian
U251 CNS = test system: U251 CNS
OVCAR-3 ovarian = test system: OVCAR-3 ovarian
786-0 renal = test system: 786-0 renal
UACC-62 melanoma = test system: UACC-62 melanoma
SK-OV-3 ovarian = test system: SK-OV-3 ovarian
A498 renal = test system: A498 renal
EKVX NSCLC = test system: EKVX NSCLC
SNB-75 CNS = test system: SNB-75 CNS
MCF7 breast = test system: MCF7 breast
HCC-2998 colon = test system: HCC-2998 colon

Compound `Cc1ccc(-c2sc(-c3ccc(C)cc3)c3c2C2CCC3C2)cc1` has a TGI (SNB-19 CNS) of over 50 µM, a TGI (T-47D breast) of over 50 µM and a TGI (NCI-H23 lung) of over 50 µM. It also gave a TGI (SF-268 CNS) of over 50 µM, a TGI (SK-MEL-2 melanoma) of over 50 µM and a TGI (HOP-92 NSCLC) of over 50 µM. The TGI (MDA-N) was over 50 µM, the TGI (UACC-257 melanoma) was over 50 µM and the TGI (SF-295 CNS) was over 50 µM. It also gave a TGI (K-562 leukemia) of over 50 µM, a TGI (CCRF-CEM leukemia) of over 50 µM and a TGI (HCT-15 colon) of over 50 µM. The TGI (A549 NSCLC) was over 50 µM, the TGI (HL-60(TB) leukemia) was over 50 µM and the TGI (CAKI-1 renal) was over 50 µM. It also gave a TGI (UO-31 renal) of over 50 µM, a TGI (LOX IMVI melanoma) of over 50 µM and a TGI (OVCAR-8 ovarian) of over 50 µM. It also gave a TGI (SW-620 colon) of over 50 µM, a TGI (HT29 colon) of over 50 µM and a TGI (IGROV1 ovarian) of over 50 µM. It also gave a TGI (BT-549 breast) of over 50 µM, a TGI (MDA-MB-435) of over 50 µM and a TGI (OVCAR-4 ovarian) of over 50 µM. For the same compound, the TGI (MDA-MB-231 breast) was over 50 µM, the TGI (RXF 393 renal) was over 50 µM and the TGI (NCI-H460 lung) was over 50 µM. The TGI (SF-539 CNS) was over 50 µM, the TGI (HOP-62 NSCLC) was over 50 µM and the TGI (MOLT-4 leukemia) was over 50 µM. For the same compound, the TGI (HS 578T breast) was over 50 µM, the TGI (SR leukemia) was over 50 µM and the TGI (TK-10 renal) was over 50 µM. The TGI (SK-MEL-28 melanoma) was over 50 µM, the TGI (DU-145 prostate) was over 50 µM and the TGI (MALME-3M melanoma) was over 50 µM. It also gave a TGI (NCI-H226 lung) of over 50 µM, a TGI (HCT-116 colon) of over 50 µM and a TGI (NCI-H522 lung) of over 50 µM. For the same compound, the TGI (ACHN renal) was over 50 µM, the TGI (COLO 205 colon) was over 50 µM and the TGI (M14 melanoma) was over 50 µM. The TGI (PC-3 prostate) was over 50 µM, the TGI (RPMI-8226 leukemia) was over 50 µM and the TGI (SN12C renal) was over 50 µM. For the same compound, the TGI (SK-MEL-5 melanoma) was over 50 µM, the TGI (KM12 colon) was over 50 µM and the TGI (OVCAR-5 ovarian) was over 50 µM. It also gave a TGI (NCI/ADR-RES ovarian) of over 50 µM, a TGI (U251 CNS) of over 50 µM and a TGI (OVCAR-3 ovarian) of over 50 µM. For the same compound, the TGI (786-0 renal) was over 50 µM, the TGI (UACC-62 melanoma) was over 50 µM and the TGI (SK-OV-3 ovarian) was over 50 µM. For the same compound, the TGI (A498 renal) was over 50 µM and the TGI (EKVX NSCLC) was over 50 µM.

For `CN1CCN(c2nc3ccccc3nc2C(=O)c2ccc(Cl)cc2)CC1`, the TGI (SNB-19 CNS) was over 100 µM, the TGI (SNB-75 CNS) was over 100 µM and the TGI (T-47D breast) was over 100 µM. The TGI (NCI-H23 lung) was over 100 µM, the TGI (SF-268 CNS) was over 100 µM and the TGI (SK-MEL-2 melanoma) was over 100 µM. It also gave a TGI (HOP-92 NSCLC) of over 100 µM, a TGI (MDA-N) of over 100 µM and a TGI (UACC-257 melanoma) of over 100 µM. For the same compound, the TGI (SF-295 CNS) was over 100 µM, the TGI (K-562 leukemia) was over 100 µM and the TGI (CCRF-CEM leukemia) was over 100 µM. The TGI (HCT-15 colon) was over 100 µM, the TGI (A549 NSCLC) was over 100 µM and the TGI (HL-60(TB) leukemia) was 98 µM. For the same compound, the TGI (CAKI-1 renal) was over 100 µM, the TGI (UO-31 renal) was over 100 µM and the TGI (LOX IMVI melanoma) was over 100 µM. The TGI (OVCAR-8 ovarian) was over 100 µM, the TGI (MCF7 breast) was over 100 µM and the TGI (SW-620 colon) was over 100 µM. The TGI (HT29 colon) was over 100 µM, the TGI (IGROV1 ovarian) was over 100 µM and the TGI (MDA-MB-435) was over 100 µM. The TGI (OVCAR-4 ovarian) was over 100 µM, the TGI (HCC-2998 colon) was 99.7 µM and the TGI (RXF 393 renal) was 77.3 µM. The TGI (NCI-H460 lung) was 80.2 µM, the TGI (SF-539 CNS) was over 100 µM and the TGI (HOP-62 NSCLC) was over 100 µM. For the same compound, the TGI (MOLT-4 leukemia) was over 100 µM, the TGI (HS 578T breast) was over 100 µM and the TGI (SR leukemia) was over 100 µM. For the same compound, the TGI (TK-10 renal) was over 100 µM, the TGI (SK-MEL-28 melanoma) was over 100 µM and the TGI (DU-145 prostate) was over 100 µM. It also gave a TGI (MALME-3M melanoma) of 48.1 µM, a TGI (HCT-116 colon) of over 100 µM and a TGI (NCI-H522 lung) of over 100 µM. It also gave a TGI (ACHN renal) of over 100 µM, a TGI (COLO 205 colon) of over 100 µM and a TGI (M14 melanoma) of 62.8 µM. The TGI (PC-3 prostate) was over 100 µM, the TGI (RPMI-8226 leukemia) was 77.4 µM and the TGI (SK-MEL-5 melanoma) was 52.7 µM. The TGI (KM12 colon) was over 100 µM, the TGI (OVCAR-5 ovarian) was over 100 µM and the TGI (NCI/ADR-RES ovarian) was over 100 µM. For the same compound, the TGI (U251 CNS) was over 100 µM, the TGI (OVCAR-3 ovarian) was over 100 µM and the TGI (786-0 renal) was over 100 µM. For the same compound, the TGI (UACC-62 melanoma) was 76.2 µM, the TGI (SK-OV-3 ovarian) was over 100 µM and the TGI (A498 renal) was over 100 µM. The TGI (EKVX NSCLC) was over 100 µM.

In the case of `O=C1/C(=C\c2ccc([N+](=O)[O-])cc2)Sc2scc(-c3ccc(O)c(O)c3)[n+]21`, the TGI (SNB-19 CNS) is reported as 74 µM, the TGI (SNB-75 CNS) is reported as 25.9 µM and the TGI (T-47D breast) is reported as 54.6 µM. It also gave a TGI (NCI-H23 lung) of 44.6 µM, a TGI (SF-268 CNS) of 21 µM and a TGI (SK-MEL-2 melanoma) of 29.3 µM. It also gave a TGI (HOP-92 NSCLC) of 31.8 µM, a TGI (MDA-N) of 25.6 µM and a TGI (UACC-257 melanoma) of 22.6 µM. It also gave a TGI (SF-295 CNS) of 31.8 µM, a TGI (K-562 leukemia) of over 100 µM and a TGI (CCRF-CEM leukemia) of 16.3 µM. For the same compound, the TGI (HCT-15 colon) was 14.1 µM, the TGI (A549 NSCLC) was 55.4 µM and the TGI (HL-60(TB) leukemia) was 8.93 µM. The TGI (CAKI-1 renal) was 9.72 µM, the TGI (UO-31 renal) was 22.3 µM and the TGI (LOX IMVI melanoma) was over 100 µM. The TGI (OVCAR-8 ovarian) was 29.3 µM, the TGI (MCF7 breast) was 15.3 µM and the TGI (SW-620 colon) was 15 µM. It also gave a TGI (HT29 colon) of 15.7 µM, a TGI (IGROV1 ovarian) of 19.7 µM and a TGI (MDA-MB-435) of 21.9 µM. The TGI (OVCAR-4 ovarian) was 24.7 µM, the TGI (MDA-MB-231 breast) was 66.9 µM and the TGI (HCC-2998 colon) was 19 µM. For the same compound, the TGI (NCI-H460 lung) was 16.5 µM, the TGI (SF-539 CNS) was 22.5 µM and the TGI (HOP-62 NSCLC) was 27.5 µM. It also gave a TGI (MOLT-4 leukemia) of 51.3 µM, a TGI (HS 578T breast) of 63.7 µM and a TGI (SR leukemia) of 27.9 µM. The TGI (TK-10 renal) was 10.6 µM, the TGI (SK-MEL-28 melanoma) was 25 µM and the TGI (DU-145 prostate) was 37.2 µM. The TGI (NCI-H226 lung) was over 100 µM, the TGI (HCT-116 colon) was 75.2 µM and the TGI (NCI-H522 lung) was 5.34 µM. It also gave a TGI (ACHN renal) of 47.5 µM, a TGI (COLO 205 colon) of 6.07 µM and a TGI (M14 melanoma) of 27.4 µM. For the same compound, the TGI (PC-3 prostate) was 19.4 µM, the TGI (RPMI-8226 leukemia) was 15.2 µM and the TGI (SN12C renal) was 50 µM. For the same compound, the TGI (SK-MEL-5 melanoma) was 13.4 µM, the TGI (KM12 colon) was 27.6 µM and the TGI (OVCAR-5 ovarian) was 35.4 µM. The TGI (NCI/ADR-RES ovarian) was 50.1 µM, the TGI (U251 CNS) was 20.5 µM and the TGI (OVCAR-3 ovarian) was 9.79 µM. It also gave a TGI (786-0 renal) of 22.5 µM, a TGI (UACC-62 melanoma) of 23.4 µM and a TGI (SK-OV-3 ovarian) of 26.2 µM. The TGI (EKVX NSCLC) was 31.6 µM.
